From patent US20110106000A1, “Nitric Oxide Compositions and Devices and Methods for Cosmesis” (MICROPHARMA LIMITED, priority 2008, published 2011) come the findings set out here.

Bounds are passed on as bounds.

One experiment concerns porcine liver esterase. The experiment in a line: Enzymatic generation of gNO with porcine liver esterase, sodium nitrite and ester substrates. Format: biochemical. The conditions noted are these: for substrate ranking for porcine liver esterase (gNO generation): FIG. 31, measured hourly; for gNO production: porcine liver esterase, sodium nitrite. As to the method: (§1) Enzymatic Generation of gNO: A 200 μl reaction solution was prepared by combining water, an acetate ester (ethyl acetate, isobutyl acetate, octyl acetate) or a triglyceride such as triacetin (glyceryl triacetate), sodium nitrite, and an esterase (porcine liver esterase, rhyzopus oryzae esterase) or a lipase (porcine pancreatic lipase, candida rugosa lipase). The solution was then added to a 2 ml vial, which was closed tightly with a septum cap. The head gas was sampled every hour from the reaction containing vials in order to determine gNO concentrations.

Another experiment has as its system candida rugosa lipase. The experiment in a line: Enzymatic generation of gNO with candida rugosa lipase, sodium nitrite and ester substrates. The class given is biochemical. The procedure:
as §1

As for `CCOC(C)=O` [ethyl acetate], the “substrate ranking for porcine liver esterase (gNO generation)” value in the experiment with porcine liver esterase was “best substrates”.
Regarding `CC(=O)OCC(COC(C)=O)OC(C)=O` [triacetin, glyceryl triacetate], the gNO production in the experiment with porcine liver esterase (0.5% triacetin in the assay) was no more than 200 ppmV; with porcine liver esterase (1% triacetin in the assay) it was “up to 250 ppmV”; in the experiment with porcine liver esterase (over the 6 hour experiment) it was greater than 350 ppmV; in the experiment with candida rugosa lipase (candida rugosa lipase, sodium nitrite, one hour after the reaction was started), no less than 200 ppmV. In the experiment on porcine liver esterase, the “substrate ranking for porcine liver esterase (gNO generation)” value was “best substrates”. The “nitric oxide production (in words)” value in the experiment on candida rugosa lipase (candida rugosa lipase tested against four substrates) is “able to produce high amounts of nitric oxide”.
